In experiment [1] the test system is Microfilaria of Dirofilaria immitis. Kind of experiment: Motility of Dirofilaria immitis microfilariae in microtiter plate, 3 days, dose response. Format: cell-based. Conditions: 72 h, read-out: EC50, motility of D. immitis microfilaria, three days at 37° C., 5% CO2, vs DMSO control.
The test system of experiment [2] is L4 stage larvae of Dirofilaria immitis. Kind of experiment: Motility of L4 stage Dirofilaria immitis larvae, 3 days, dose response. Type of experiment: cell-based. Conditions: 72 h, read-out: EC50, motility of L4 stage D. immitis, three days at 37° C., 5% CO2, vs DMSO control.
Experiment [3] deals with Haemonchus contortus L1 larvae. The experiment can be described thus: Haemonchus contortus larval development L1 to L3, 4 days, dose response. The following applies: 96 h, read-out: EC50, development of H. contortus larvae from L1 to L3.
Text: Biological Example 2: Screening Method to Test Activity of Compounds Against Haemonchus contortus

Bounds are passed on as bounds.

The values below come from patent US11999742B2, “Substituted pyrrolo[1,2-b]pyridazines as anthelmintics” (BOEHRINGER INGELHEIM VETMEDICA GMBH, priority 2021, dated 2024).

Turning to `Cc1cc2c(C(C)C)c(C(=O)N[C@H]3CCOc4ccccc43)cnn2c1-c1cc(F)cc(F)c1F` [Compound A513, N-[(4S)-3,4-dihydro-2H-1-benzopyran-4-yl]-6-methyl-4-(propan-2-yl)-7-(2,3,5-trifluorophenyl)pyrrolo[1,2-b]pyridazine-3-carboxamide], the EC50 in experiment [1] was less than 10 nM; in experiment [2] it was less than 10 nM; in experiment [3], 10 to 100 nM.
Regarding `O=C(N[C@H]1CCOc2ccccc21)c1cnn2c(-c3cc(Cl)cc(Cl)c3Cl)c(Cl)cc2c1N1CC(F)(F)C1` [Compound A506], the EC50 is less than 10 nM in experiment [1], less than 10 nM in experiment [2] and 10 to 100 nM in experiment [3].
For the compound `Cc1cc2c(C(C)(C)C)c(C(=O)N[C@H]3CCCc4ccccc43)cnn2c1-c1cc(F)cc(Cl)c1Cl` [Compound A557], the 50% effective concentration (EC50) in experiment [1], in experiment [2] and in experiment [3] was less than 10 nM each time.
`Cc1cc2c(N3CC(C)(C)C3)c(C(=O)N[C@H]3CCOc4ccccc43)cnn2c1-c1cc(Cl)cc(Cl)c1Cl` [Compound A563]: the EC50 in experiment [1], in experiment [2] and in experiment [3] was 1000 to 10000 nM in each case.
As for `Cc1cc2c(N3CC(F)(F)C3)c(C(=O)N[C@H]3CCOc4ccccc43)cnn2c1-c1cc(F)cc(Cl)c1Cl` [Compound A504], the concentration giving a half-maximal response (EC50) in experiment [1] was less than 10 nM; in experiment [2] it was less than 10 nM; in experiment [3] it was 10 to 100 nM.
`Cc1cc2c(N(C)C)c(C(=O)N[C@H]3CCOc4ccccc43)cnn2c1-c1cc(F)cc(Cl)c1Cl` [Compound A493, 7-(2,3-dichloro-5-fluorophenyl)-N-[(4S)-3,4-dihydro-2H-1-benzopyran-4-yl]-4-(dimethylamino)-6-methylpyrrolo[1,2-b]pyridazine-3-carboxamide]: the EC50 in experiment [1], in experiment [2] and in experiment [3] was less than 10 nM each time.
As to `CN(C)c1c(C(=O)N[C@H]2CCOc3ccccc32)cnn2c(-c3cc(F)cc(Cl)c3Cl)c(Cl)cc12` [Compound A478], the EC50 in experiment [1] is 10 to 100 nM; in experiment [2], 100 to 1000 nM; in experiment [3], 10 to 100 nM.
Consider `CC(C)(C)c1c(C(=O)N[C@H]2CCOc3ccccc32)cnn2c(-c3cc(Cl)cc(Cl)c3)c(C(F)(F)F)cc12` [Compound A483], for which the EC50 was 10 to 100 nM in experiment [1], less than 10 nM in experiment [2] and 10 to 100 nM in experiment [3].
As to `Cc1cc2c(C(C)(C)C)c(C(=O)N[C@H]3CCOc4ccccc43)cnn2c1-c1cc(F)cc(F)c1F` [Compound A471], the 50% effective concentration (EC50) in experiment [1], in experiment [2] and in experiment [3] was less than 10 nM in each case.
Regarding `Cc1cc2c(N3CC(F)(F)C3)c(C(=O)N[C@H]3CCOc4ccccc43)cnn2c1-c1cc(Cl)cc(Cl)c1Cl` [Compound A505], the 50% effective concentration (EC50) in experiment [1] is less than 10 nM; in experiment [2] it was less than 10 nM; in experiment [3] it was 10 to 100 nM.
Turning to `Cc1cc2c(C(C)(C)C)c(C(=O)N[C@H]3CCOc4ccccc43)cnn2c1-c1c(Cl)cc(F)cc1Cl` [Compound A487], the values for the half-maximal effective concentration (EC50) in experiment [1], in experiment [2] and in experiment [3] were 10 to 100 nM, less than 10 nM and 10 to 100 nM, respectively.
In the case of `Cc1cc2c(C(C)(C)C)c(C(=O)N[C@H]3CCOc4ccccc43)cnn2c1N1CCCCC1` [Compound A524, 4-tert-butyl-N-[(4S)-3,4-dihydro-2H-1-benzopyran-4-yl]-6-methyl-7-(piperidin-1-yl)pyrrolo[1,2-b]pyridazine-3-carboxamide], the EC50 in experiment [1], in experiment [2] and in experiment [3] was 100 to 1000 nM each time.
`Cc1cc2c(C(C)(C)C)c(C(=O)N[C@H]3CCOc4ccccc43)cnn2c1-c1cc(F)cc(Cl)c1Cl` [Compound A481, 4-tert-butyl-7-(2,3-dichloro-5-fluorophenyl)-N-[(4S)-3,4-dihydro-2H-1-benzopyran-4-yl]-6-methylpyrrolo[1,2-b]pyridazine-3-carboxamide]: the EC50 was 10 to 100 nM in experiment [1], less than 10 nM in experiment [2] and 10 to 100 nM in experiment [3].
Consider `Cc1cc2c(C(C)(C)C)c(C(=O)N[C@H]3CCOc4ccccc43)cnn2c1-c1c(F)cc(F)cc1F` [Compound A476], for which the EC50 in experiment [1] is 10 to 100 nM; in experiment [2] it was less than 10 nM; in experiment [3], 10 to 100 nM.
`Cc1cc2c(C(C)C)c(NC(=O)[C@H]3CCOc4ccccc43)cnn2c1-c1cc(Cl)cc(Cl)c1` [Compound A462]: the EC50 in experiment [1] is 10 to 100 nM; in experiment [2], 10 to 100 nM; in experiment [3], 100 to 1000 nM.
With `CC(C)(C)c1c(C(=O)N[C@H]2CCOc3ccccc32)cnn2c(-c3cc(F)cc(F)c3F)c(Cl)cc12` [Compound A486], the concentration giving a half-maximal response (EC50) in experiment [1], in experiment [2] and in experiment [3] was less than 10 nM in each case.
Turning to `Cc1cc2c(N3CCOCC3)c(C(=O)N[C@H]3CCOc4ccccc43)cnn2c1-c1cc(Cl)cc(Cl)c1Cl` [Compound A501], the figures for the 50% effective concentration (EC50) in experiment [1], in experiment [2] and in experiment [3] were less than 10 nM, less than 10 nM and 10 to 100 nM, respectively.
Consider `Cc1cc2c(C(C)(C)C)c(C(=O)N[C@H]3CCOc4ccc(F)cc43)cnn2c1-c1cc(F)cc(Cl)c1Cl` [Compound A488], for which the EC50 in experiment [1] is less than 10 nM; in experiment [2], 10 to 100 nM; in experiment [3] it was 10 to 100 nM.
As to `Cc1cc2c(C(C)(C)C)c(C(=O)N[C@H]3CCOc4ccccc43)cnn2c1N1CCC(F)(F)CC1` [Compound A527], the values for the concentration for a half-maximal effect (EC50) in experiment [1], in experiment [2] and in experiment [3] were 100 to 1000 nM, 10 to 100 nM and 100 to 1000 nM, respectively.
Regarding `Cc1cc2c(C(C)(C)C)c(C(=O)N[C@H]3CCOc4ccccc43)cnn2c1-c1cc(Cl)cc(Cl)c1Cl` [Compound A472], the EC50 in experiment [1] and in experiment [3] was less than 10 nM in each case.
Regarding `O=C(N[C@H]1CCOc2ccccc21)c1cnn2c(-c3cc(F)cc(Cl)c3Cl)c(Cl)cc2c1N1CCC1` [Compound A503], the EC50 was less than 10 nM in experiment [1], less than 10 nM in experiment [2] and 10 to 100 nM in experiment [3].
`CC(C)c1c(C(=O)N[C@H]2CCOc3ccccc32)cnn2c(-c3cc(F)cc(Cl)c3Cl)c(Cl)cc12` [Compound A523, 6-chloro-7-(2,3-dichloro-5-fluorophenyl)-N-[(4S)-3,4-dihydro-2H-1-benzopyran-4-yl]-4-(propan-2-yl)pyrrolo[1,2-b]pyridazine-3-carboxamide]: the 50% effective concentration (EC50) in experiment [1], in experiment [2] and in experiment [3] was less than 10 nM each time.
For `CC1(C)CN(c2c(C(=O)N[C@H]3CCOc4ccccc43)cnn3c(-c4cc(Cl)cc(Cl)c4Cl)c(Cl)cc23)C1` [Compound A515], in experiment [3], the EC50 was 1000 to 10000 nM.
`CC(C)c1c(C(=O)N[C@H]2CCOc3ccccc32)cnn2c(-c3cc(Cl)cc(Cl)c3)c(F)cc12` [Compound A466]: the figures for the EC50 in experiment [1], in experiment [2] and in experiment [3] were 10 to 100 nM, 10 to 100 nM and 100 to 1000 nM, respectively.
Turning to `Cc1cc2c(C(C)C)c(C(=O)NN3CCOc4ccccc43)cnn2c1-c1cc(F)cc(Cl)c1Cl` [Compound A498], the EC50 in experiment [1] is less than 10 nM; in experiment [2], less than 10 nM; in experiment [3], 10 to 100 nM.
On to `CN(C)c1c(C(=O)N[C@H]2CCOc3ccccc32)cnn2c(-c3cc(Cl)cc(Cl)c3)c(Cl)cc12` [Compound A475], for which the half-maximal effective concentration (EC50) in experiment [1] was 100 to 1000 nM; in experiment [3] it was 10 to 100 nM.
With `Cc1cc2c(C(C)(C)C)c(NC(=O)NC3CCCc4ncsc43)cnn2c1-c1cc(F)cc(Cl)c1Cl` (centres unmarked) [Compound A535], the concentration giving a half-maximal response (EC50) in experiment [3] lay in the range of 1000 to 10000 nM.
Consider `CC(C)c1c(C(=S)N[C@H]2CCOc3ccccc32)cnn2c(-c3cc(F)cc(Cl)c3Cl)c(Cl)cc12` [Compound A539, 6-chloro-7-(2,3-dichloro-5-fluorophenyl)-N-[(4S)-3,4-dihydro-2H-1-benzopyran-4-yl]-4-(propan-2-yl)pyrrolo[1,2-b]pyridazine-3-carbothioamide], for which the results for the EC50 in experiment [1] and in experiment [2] were 10 to 100 nM and 100 to 1000 nM, respectively.
For `Cc1cc2c(C(C)(C)C)c(C(=O)N[C@H]3CCc4ccccc43)cnn2c1-c1cc(Cl)cc(Cl)c1` [Compound A480], the EC50 in experiment [1] was in the range of 1000 to 10000 nM; in experiment [2], 100 to 1000 nM.
For `Cc1cc2c(C(C)C)c(C(=O)NN3CCOc4ccccc43)cnn2c1-c1cc(Cl)cc(Cl)c1` [Compound A497], the half-maximal effective concentration (EC50) in experiment [1] and in experiment [3] was 10 to 100 nM each time.
For `Cc1cc2c(C(C)(C)C)c(C(=O)N[C@H]3CCn4cncc43)cnn2c1-c1cc(F)cc(Cl)c1Cl` [Compound A552], the EC50 in experiment [1] and in experiment [2] was 1000 to 10000 nM each time.
Take `Cc1cc2c(N(C)C)c(C(=O)N[C@H]3CCOc4ccccc43)cnn2c1-c1cc(Cl)cc(Cl)c1Cl` [Compound A568]: the EC50 in experiment [1] and in experiment [3] was less than 10 nM in each case.
`Cc1cc2c(C(C)(C)C)c(C(=O)N[C@H]3CC(C)(C)Oc4ccccc43)cnn2c1-c1cc(F)cc(Cl)c1Cl` [Compound A547]: the concentration giving a half-maximal response (EC50) in experiment [1] and in experiment [2] was 1000 to 10000 nM each time.
Consider `Cc1cc2c(N3CC(C)(C)C3)c(C(=O)N[C@H]3CCOc4ccccc43)cnn2c1-c1cc(F)cc(Cl)c1Cl` [Compound A512], for which the half-maximal effective concentration (EC50) in experiment [3] is 1000 to 10000 nM.
On to `Cc1cc2c(C(C)C)c(C(=O)N[C@H]3CCOc4ccccc43)cnn2c1-c1cc(F)cc(Cl)c1Cl` [Compound A489], for which the concentration giving a half-maximal response (EC50) in experiment [1] and in experiment [2] was less than 10 nM each time.
In the case of `CC(C)(C)c1c(C(=O)N[C@H]2CCc3ccccc32)cnn2c(-c3cc(Cl)cc(Cl)c3)c(Cl)cc12` [Compound A492], the 50% effective concentration (EC50) was 10 to 100 nM in experiment [1] and 100 to 1000 nM in experiment [3].
Take `Cc1cc(-c2cc(Cl)cc(Cl)c2)n2ncc(C(=O)N[C@H]3CCOc4ccccc43)c(C(C)C)c12` [Compound A469]: the half-maximal effective concentration (EC50) in experiment [1] and in experiment [2] was 10 to 100 nM in each case.
Consider `Cc1cc2c(C(C)(C)C)c(C(=O)N[C@H]3CC4(CCCC4)Oc4ccccc43)cnn2c1-c1cc(F)cc(Cl)c1Cl` [Compound A548], for which the concentration giving a half-maximal response (EC50) in experiment [1] and in experiment [2] was 1000 to 10000 nM throughout.
As to `Cc1cc2c(N3CCOCC3)c(C(=O)N[C@H]3CCOc4ccccc43)cnn2c1-c1cc(F)cc(Cl)c1Cl` [Compound A490], the EC50 in experiment [1] and in experiment [2] was less than 10 nM in each case.
